From patent US8153390B2, “FRET-based binding assay” (Roche Palo Alto LLC, priority 2009, dated 2012)

Assays:
BTK-Btn [1] = biological target: T1, BTK-Btn (Homo sapiens, UniProt Q06187); assay: TR-FRET competition binding assay, BTK-Btn with tracer TR 178 (low tracer / low kinase); parameters: 6xHis (N); made in house; host or cells: Sf-9 insect cells (baculovirus)
BTK = biological target: T2, BTK (Homo sapiens, UniProt Q06187); assay: Enzymatic assay for BTK (Caliper, peptide substrate); assay type: biochemical; settings: 5 nM BTK, 100 μM ATP; for IC50: […] peptide substrate, read-out: Enzyme IC50
T2 construct: mixed with 26 μL of purified full length BTK (final concentration of 5 nM); purchased Invitrogen (Carlsbad, Calif.)

BTK-Btn [2] = biological target: T1, BTK-Btn; assay: TR-FRET competition binding assay, BTK-Btn with tracer AF647-staur; settings: read-out: FRET IC50, 0.5 nM BTK-Btn, 0.5 nM Eu-strept
[3] = 0.05 nM BTK-Btn and 0.5 nM TR 178
[4] = 0.05 nM TR 178 and 0.5 nM BTK-Btn
[5] = 0.05 nM BTK-Btn and 0.5 nM TR 178, read-out: Low kinase IC50
[6] = 0.05 nM TR 178 and 0.5 nM BTK-Btn, read-out: Low tracer IC50

T1 sequence (Q06187 whole entry): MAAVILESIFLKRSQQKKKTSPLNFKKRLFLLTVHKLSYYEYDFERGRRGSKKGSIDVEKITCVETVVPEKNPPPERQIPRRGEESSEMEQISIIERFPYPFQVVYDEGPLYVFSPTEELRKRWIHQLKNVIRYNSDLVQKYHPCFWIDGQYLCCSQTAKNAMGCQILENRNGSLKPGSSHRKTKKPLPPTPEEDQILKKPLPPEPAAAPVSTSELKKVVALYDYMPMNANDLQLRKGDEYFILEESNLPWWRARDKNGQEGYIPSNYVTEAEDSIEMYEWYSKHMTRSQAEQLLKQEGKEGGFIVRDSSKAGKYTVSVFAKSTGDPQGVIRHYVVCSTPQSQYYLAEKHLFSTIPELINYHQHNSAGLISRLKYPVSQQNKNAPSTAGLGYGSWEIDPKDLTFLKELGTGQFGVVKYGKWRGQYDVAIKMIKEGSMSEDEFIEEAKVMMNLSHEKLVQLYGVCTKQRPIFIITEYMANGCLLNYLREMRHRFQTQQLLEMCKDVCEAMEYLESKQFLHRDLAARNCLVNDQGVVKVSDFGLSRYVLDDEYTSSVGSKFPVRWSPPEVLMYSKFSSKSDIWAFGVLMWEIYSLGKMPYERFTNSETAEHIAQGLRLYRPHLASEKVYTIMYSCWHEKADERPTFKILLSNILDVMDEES
T2 sequence (Q06187 whole entry): as above

Row | Compound | Low kinase nH (BTK-Btn [1]; [3]) | Low tracer nH (BTK-Btn [1]; [4]) | Enzyme nH (hill slope of dose response curve) (BTK) | IC50 (BTK-Btn [2]) [µM] | IC50 (BTK-Btn [1]; [5]) [µM] | IC50 (BTK-Btn [1]; [6]) [µM] | IC50 (BTK) [µM]
1 | CC(C)(C)n1nc(-c2ccc(Cl)cc2)c2c(N)ncnc21 [PP2] | 1.8 ± 0.1 | 0.9 ± 0.1 | 1.1 ± 0.1 | – | – | – | –
2 | N#CC(C#N)=Cc1cc(O)c(O)c(O)c1 [Tyrphostin 25] | 0.8 ± 0.1 | 0.6 ± 0.2 | 0.6 ± 0.1 | 48 ± 15 | 130 ± 10 | 45 ± 9 | > 100
3 | Nc1ncnc2c1ncn2[C@@H]1O[C@H](COP(=O)(O)OP(=O)(O)O)[C@@H](O)[C@H]1O [ADP] | 0.9 ± 0.1 | 0.7 ± 0.2 | 1.0 ± 0.1 | 46 ± 7 | 200 ± 40 | 40 ± 11 | > 100
4 | CC(O)=C(C#N)C(=O)Nc1cc(Br)ccc1Br [LFM-A13, alpha-cyano-beta-hydroxy-beta-methyl-N-(2,5-dibromophenyl)propenamide] | 1.3 ± 0.1 | 0.6 ± 0.2 | 1.1 ± 0.1 | – | – | – | –
